{
  "source": "patent US4904590A",
  "about": "“Antibiotic A80915 and process for its production” (Eli Lilly and Company, priority 1988, dated 1990)",
  "key": {"[1]": {"tested_on": "Fusobacterium necrophorum 6054A", "assay": "Susceptibility of anaerobic bacterial isolates (MIC), agar-dilution", "format": "cell-based", "conditions": "Fusobacterium necrophorum, 6054A, 24 h"}, "[2]": {"tested_on": "Eubacterium aerofaciens 1235", "assay": "Susceptibility of anaerobic bacterial isolates (MIC), agar-dilution", "format": "cell-based", "conditions": "Collinsella aerofaciens, 1235, 24 h"}, "[3]": {"tested_on": "Peptostreptococcus intermedius 1264", "assay": "Susceptibility of anaerobic bacterial isolates (MIC), agar-dilution", "format": "cell-based", "conditions": "Peptostreptococcus, 1264, 24 h"}, "[4]": {"tested_on": "Clostridium difficile 2994", "assay": "Susceptibility of anaerobic bacterial isolates (MIC), agar-dilution", "format": "cell-based", "conditions": "Clostridioides difficile, 2994, 24 h"}, "[5]": {"tested_on": "Bacteriodes thetaiotaomicron 1438", "assay": "Susceptibility of anaerobic bacterial isolates (MIC), agar-dilution", "format": "cell-based", "conditions": "24 h"}, "[6]": {"assay": "Spontaneous loss of nitrogen on standing in solvent", "format": "physicochemical", "conditions": "standing at room temperature in a solvent such as methanol, ethanol or water", "from_the_text": "Loss of nitrogen is accelerated by, for example, heating or the addition of salts or mild reducing agents such as sodium hyposulfite, and the like."}, "[7]": {"tested_on": "Bacteriodes melaninogenicus 1856/28", "assay": "Susceptibility of anaerobic bacterial isolates (MIC), agar-dilution", "format": "cell-based", "conditions": "24 h"}, "[8]": {"assay": "Acute toxicity in mice, intraperitoneal injection", "conditions": "mouse, in vivo, ip", "from_the_text": "The acute toxicity of the A80915 antibiotics in mice, when administered by intraperitoneal injection and expressed as LD50, is shown in Table V."}, "Trichomonas foetus": {"tested_on": "Trichomonas foetus", "assay": "Anti-protozoan activity (MIC)", "format": "cell-based", "conditions": "Tritrichomonas foetus"}, "[9]": {"tested_on": "Clostridium perfringens 81", "assay": "microbe, parasite or virus in culture", "format": "cell-based", "conditions": "Clostridium perfringens, 81, 24 h"}, "[10]": {"tested_on": "Bacteriodes vulgatis 1211", "assay": "Susceptibility of anaerobic bacterial isolates (MIC), agar-dilution", "format": "cell-based", "conditions": "24 h"}, "[11]": {"tested_on": "Propionibacterium acnes 79", "assay": "Susceptibility of anaerobic bacterial isolates (MIC), agar-dilution", "format": "cell-based", "conditions": "Cutibacterium acnes, 79, 24 h"}, "[12]": {"tested_on": "Peptococcus asaccharolyticus 1302", "assay": "Susceptibility of anaerobic bacterial isolates (MIC), agar-dilution", "format": "cell-based", "conditions": "Peptoniphilus asaccharolyticus, 1302, 24 h"}, "Peptococcus prevoti 1281": {"tested_on": "Peptococcus prevoti 1281", "assay": "Susceptibility of anaerobic bacterial isolates (MIC), agar-dilution", "format": "cell-based", "conditions": "24 h"}, "[13]": {"tested_on": "Fusobacterium symbiosum 1470", "assay": "Susceptibility of anaerobic bacterial isolates (MIC), agar-dilution", "format": "cell-based", "conditions": "Fusobacterium, 1470, 24 h"}, "[14]": {"tested_on": "Bacteriodes fragilis 1936B", "assay": "Susceptibility of anaerobic bacterial isolates (MIC), agar-dilution", "format": "cell-based", "conditions": "24 h"}, "Bacteriodes fragilis 111": {"tested_on": "Bacteriodes fragilis 111", "assay": "Susceptibility of anaerobic bacterial isolates (MIC), agar-dilution", "format": "cell-based", "conditions": "24 h"}, "[15]": {"tested_on": "Peptostreptococcus anaerobius 1428", "assay": "Susceptibility of anaerobic bacterial isolates (MIC), agar-dilution", "format": "cell-based", "conditions": "Peptostreptococcus anaerobius, 1428, 24 h"}, "[16]": {"tested_on": "Streptococcus pyogenes C203", "format": "cell-based", "conditions": "Streptococcus pyogenes C203; agar-dilution; read-out: MIC", "experimental": "(§1) The A80915 antibiotics inhibit the growth of bacteria which are pathogenic to animal life. […] The MIC's in Table III were determined by conventional agar-dilution assays."}, "Streptococcus sp.": {"tested_on": "Streptococcus sp.", "format": "cell-based", "conditions": "Veterinary organism Streptococcus sp.; agar-dilution", "experimental": "as §1"}, "Gram-negative": {"tested_on": "Gram-negative", "format": "cell-based", "conditions": "agar-dilution", "experimental": "as §1"}, "Pasteurella hemolytica": {"tested_on": "Pasteurella hemolytica", "format": "cell-based", "conditions": "Veterinary organism Pasteurella hemolytica; agar-dilution", "experimental": "as §1"}, "[17]": {"tested_on": "Streptococcus pneumoniae Park1", "format": "cell-based", "conditions": "Streptococcus pneumoniae, PARK1", "experimental": "as §1"}, "[18]": {"tested_on": "Staphylococcus aureus V41", "format": "cell-based", "conditions": "Staphylococcus aureus V41; agar-dilution; read-out: MIC", "experimental": "as §1"}, "[19]": {"tested_on": "Staphylococcus epidermis 222", "format": "cell-based", "conditions": "Staphylococcus epidermis 222; agar-dilution; read-out: MIC", "experimental": "as §1"}, "Mycoplasma gallisepticum": {"tested_on": "Mycoplasma gallisepticum", "format": "cell-based", "conditions": "Mycoplasmoides gallisepticum; Veterinary organism Mycoplasma gallisepticum; agar-dilution", "experimental": "as §1"}, "[20]": {"tested_on": "Staphylococcus aureus X400", "format": "cell-based", "conditions": "Staphylococcus aureus X400; agar-dilution; read-out: MIC", "experimental": "as §1"}, "Pasteurella multocida": {"tested_on": "Pasteurella multocida", "format": "cell-based", "conditions": "Veterinary organism Pasteurella multocida; agar-dilution", "experimental": "as §1"}, "Staphylococcus sp.": {"tested_on": "Staphylococcus sp.", "format": "cell-based", "conditions": "Veterinary organism Staphylococcus sp.; agar-dilution", "experimental": "as §1"}, "[21]": {"tested_on": "Staphylococcus epidermis EPI1", "format": "cell-based", "conditions": "Staphylococcus epidermis EPI1; agar-dilution; read-out: MIC", "experimental": "as §1"}, "Escherichia coli": {"tested_on": "Escherichia coli", "format": "cell-based", "conditions": "Veterinary organism Escherichia coli; agar-dilution", "experimental": "as §1"}, "[22]": {"tested_on": "Bordetella bronchiseptica", "format": "cell-based", "conditions": "Veterinary organism Bordetella bronchiseptica; agar-dilution", "experimental": "as §1"}, "[23]": {"tested_on": "Staphylococcus aureus X1.1", "format": "cell-based", "conditions": "Staphylococcus aureus X1.1; agar-dilution; read-out: MIC", "experimental": "as §1"}, "Mycoplasma hyopneumoniae": {"tested_on": "Mycoplasma hyopneumoniae", "format": "cell-based", "conditions": "Mesomycoplasma hyopneumoniae; Veterinary organism Mycoplasma hyopneumoniae; agar-dilution", "experimental": "as §1"}, "[24]": {"tested_on": "Streptococcus faecium X66", "format": "cell-based", "conditions": "Enterococcus faecium; Streptococcus faecium X66; agar-dilution; read-out: MIC", "experimental": "as §1"}, "[25]": {"tested_on": "Streptococcus faecium 2041", "format": "cell-based", "conditions": "Enterococcus faecium; Streptococcus faecium 2041; agar-dilution; read-out: MIC", "experimental": "as §1"}, "Salmonella typhimurium": {"tested_on": "Salmonella typhimurium", "format": "cell-based", "conditions": "Salmonella enterica; Veterinary organism Salmonella typhimurium; agar-dilution", "experimental": "as §1"}, "[26]": {"tested_on": "Bacteriodes corrodens 1874", "assay": "Susceptibility of anaerobic bacterial isolates (MIC), agar-dilution", "format": "cell-based", "conditions": "24 h"}, "[27]": {"tested_on": "Clostridium septicum 1128", "assay": "Susceptibility of anaerobic bacterial isolates (MIC), agar-dilution", "format": "cell-based", "conditions": "24-hour incubation", "experimental": "The A80915 antibiotics also are active against anaerobic bacteria. […] End points were read after 24-hour incubation."}, "[28]": {"tested_on": "Bacteriodes melaninogenicus 2736", "assay": "Susceptibility of anaerobic bacterial isolates (MIC), agar-dilution", "format": "cell-based", "conditions": "24 h"}, "Trichomonas vaginalis": {"tested_on": "Trichomonas vaginalis", "assay": "Anti-protozoan activity (MIC)", "format": "cell-based"}, "[29]": {"tested_on": "Bacteriodes fragilis 1877", "assay": "Susceptibility of anaerobic bacterial isolates (MIC), agar-dilution", "format": "cell-based", "conditions": "24 h"}, "Candida albicans": {"tested_on": "Candida albicans", "assay": "Anti-fungal activity (MIC)", "format": "cell-based"}},
  "data": [
    {"smiles": "C=C1CCC(Cl)C(C)(C)C1CC12OC(C)(C)C(Cl)CC1(Cl)C(=O)c1c(O)c(C)c([O-])c([N+]#N)c1C2=O", "note": "(stereo not shown) [A80915B]", "values": [
      {"measurement": "MIC", "setting": "[1]", "result": "> 128", "unit": "µg/mL"},
      {"measurement": "MIC", "setting": "[2]", "result": "> 128", "unit": "µg/mL"},
      {"measurement": "MIC", "setting": "[3]", "result": 128, "unit": "µg/mL"},
      {"measurement": "MIC", "setting": "[4]", "result": "> 128", "unit": "µg/mL"},
      {"measurement": "MIC", "setting": "[5]", "result": "> 128", "unit": "µg/mL"},
      {"measurement": "loss of nitrogen (stability)", "setting": "[6]", "result": "spontaneously lose nitrogen"},
      {"measurement": "MIC", "setting": "[7]", "result": 128, "unit": "µg/mL"},
      {"measurement": "LD50", "setting": "[8]", "result": 75, "unit": "mg/kg"},
      {"measurement": "MIC", "setting": "Trichomonas foetus", "result": 12.5, "unit": "µg/mL"},
      {"measurement": "MIC", "setting": "[9]", "result": "> 128", "unit": "µg/mL"},
      {"measurement": "MIC", "setting": "[10]", "result": "> 128", "unit": "µg/mL"},
      {"measurement": "MIC", "setting": "[11]", "result": 128, "unit": "µg/mL"},
      {"measurement": "MIC", "setting": "[12]", "result": 128, "unit": "µg/mL"},
      {"measurement": "MIC", "setting": "Peptococcus prevoti 1281", "result": 64, "unit": "µg/mL"},
      {"measurement": "MIC", "setting": "[13]", "result": "> 128", "unit": "µg/mL"},
      {"measurement": "MIC", "setting": "[14]", "result": "> 128", "unit": "µg/mL"},
      {"measurement": "MIC", "setting": "Bacteriodes fragilis 111", "result": "> 128", "unit": "µg/mL"},
      {"measurement": "MIC", "setting": "[15]", "result": "> 128", "unit": "µg/mL"},
      {"measurement": "MIC", "setting": "[16]", "result": 8, "unit": "µg/mL"},
      {"measurement": "MIC", "setting": "Streptococcus sp.", "result": 0.1, "unit": "µg/mL"},
      {"measurement": "MIC", "setting": "Gram-negative", "result": "> 128", "unit": "µg/mL"},
      {"measurement": "MIC", "setting": "Pasteurella hemolytica", "result": 12.5, "unit": "µg/mL"},
      {"measurement": "MIC", "setting": "[17]", "result": 8, "unit": "µg/mL"},
      {"measurement": "MIC", "setting": "[18]", "result": 2, "unit": "µg/mL"},
      {"measurement": "MIC", "setting": "[19]", "result": 2, "unit": "µg/mL"},
      {"measurement": "MIC", "setting": "Mycoplasma gallisepticum", "result": 0.1, "unit": "µg/mL"},
      {"measurement": "MIC", "setting": "[20]", "result": 2, "unit": "µg/mL"},
      {"measurement": "MIC", "setting": "Pasteurella multocida", "result": 0.2, "unit": "µg/mL"},
      {"measurement": "MIC", "setting": "Staphylococcus sp.", "result": "< 0.05", "unit": "µg/mL"},
      {"measurement": "MIC", "setting": "[21]", "result": 2, "unit": "µg/mL"},
      {"measurement": "MIC", "setting": "Escherichia coli", "result": "> 50", "unit": "µg/mL"},
      {"measurement": "MIC", "setting": "[22]", "result": "> 50", "unit": "µg/mL"},
      {"measurement": "MIC", "setting": "[23]", "result": 2, "unit": "µg/mL"},
      {"measurement": "MIC", "setting": "Mycoplasma hyopneumoniae", "result": 3.12, "unit": "µg/mL"},
      {"measurement": "MIC", "setting": "[24]", "result": 8, "unit": "µg/mL"},
      {"measurement": "MIC", "setting": "[25]", "result": 8, "unit": "µg/mL"},
      {"measurement": "MIC", "setting": "Salmonella typhimurium", "result": "> 50", "unit": "µg/mL"},
      {"measurement": "MIC", "setting": "[26]", "result": "> 128", "unit": "µg/mL"},
      {"measurement": "MIC", "setting": "[27]", "result": "> 128", "unit": "µg/mL"},
      {"measurement": "MIC", "setting": "[28]", "result": "> 128", "unit": "µg/mL"},
      {"measurement": "MIC", "setting": "Trichomonas vaginalis", "result": 6.25, "unit": "µg/mL"},
      {"measurement": "MIC", "setting": "[29]", "result": "> 128", "unit": "µg/mL"},
      {"measurement": "MIC", "setting": "Candida albicans", "result": 5, "unit": "µg/mL"}
    ]}
  ]
}
